Tests used:
Experiment in all cases: relative viability (nuclei count vs DMSO), 5 days (fraction); higher = more cells survive
CAP-232 + Luminespib = compound: C[C@H]([C@@H](C(=O)N)NC(=O)[C@@H]1CSSC[C@@H](C(=O)N[C@H](C(=O)N[C@@H](C(=O)N[C@H](C(=O)N1)CCCCN)CC2=CNC3=CC=CC=C32)CC4=CC=C(C=C4)O)NC(=O)[C@@H](CC5=CC=CC=C5)N)O [CAP-232] + CCNC(=O)c1noc(-c2cc(C(C)C)c(O)cc2O)c1-c1ccc(CN2CCOCC2)cc1 [Luminespib] (partner 0.01 µM)
Procedure, shortened: (§1)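 The day after seeding in 1536-well plates, lung cancer cell lines were treated by pin tool with a single drug, or with a fixed anchor-drug dose together with five library-drug doses (not always all listed) in √10 steps. After 5 days, a combined fix-and-stain solution (final 0.05% Triton X-100, 1% formaldehyde, 1 ug/ml Hoechst) was added. Nuclei counted on 4× images gave relative viability as treated counts over vehicle counts, reported as the median of duplicate plates.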

CAP-232 + Pictilisib = compound: C[C@H]([C@@H](C(=O)N)NC(=O)[C@@H]1CSSC[C@@H](C(=O)N[C@H](C(=O)N[C@@H](C(=O)N[C@H](C(=O)N1)CCCCN)CC2=CNC3=CC=CC=C32)CC4=CC=C(C=C4)O)NC(=O)[C@@H](CC5=CC=CC=C5)N)O [CAP-232] + CS(=O)(=O)N1CCN(Cc2cc3nc(-c4cccc5[nH]ncc45)nc(N4CCOCC4)c3s2)CC1 [Pictilisib] (partner 1 µM)
Procedure, shortened: as §1

CAP-232 + Crizotinib = compound: C[C@H]([C@@H](C(=O)N)NC(=O)[C@@H]1CSSC[C@@H](C(=O)N[C@H](C(=O)N[C@@H](C(=O)N[C@H](C(=O)N1)CCCCN)CC2=CNC3=CC=CC=C32)CC4=CC=C(C=C4)O)NC(=O)[C@@H](CC5=CC=CC=C5)N)O [CAP-232] + C[C@@H](Oc1cc(-c2cnn(C3CCNCC3)c2)cnc1N)c1c(Cl)ccc(F)c1Cl [Crizotinib] (partner 1 µM)
Procedure, shortened: as §1

CAP-232 + Phenformin = compound: C[C@H]([C@@H](C(=O)N)NC(=O)[C@@H]1CSSC[C@@H](C(=O)N[C@H](C(=O)N[C@@H](C(=O)N[C@H](C(=O)N1)CCCCN)CC2=CNC3=CC=CC=C32)CC4=CC=C(C=C4)O)NC(=O)[C@@H](CC5=CC=CC=C5)N)O [CAP-232] + N=C(N)NC(=N)NCCc1ccccc1 [Phenformin] (partner 250 µM)
Procedure, shortened: as §1

CAP-232 + Linsitinib = compound: C[C@H]([C@@H](C(=O)N)NC(=O)[C@@H]1CSSC[C@@H](C(=O)N[C@H](C(=O)N[C@@H](C(=O)N[C@H](C(=O)N1)CCCCN)CC2=CNC3=CC=CC=C32)CC4=CC=C(C=C4)O)NC(=O)[C@@H](CC5=CC=CC=C5)N)O [CAP-232] + C[C@]1(O)C[C@@H](c2nc(-c3ccc4ccc(-c5ccccc5)nc4c3)c3c(N)nccn32)C1 [Linsitinib] (partner 1 µM)
Procedure, shortened: as §1

Cell Line	relative viability (CAP-232 + Luminespib; first compound 0.4 µM)	relative viability (CAP-232 + Luminespib; first compound 1.265 µM)	relative viability (CAP-232 + Luminespib; first compound 4 µM)	relative viability (CAP-232 + Luminespib; first compound 12.65 µM)	relative viability (CAP-232 + Pictilisib; first compound 0.4 µM)	relative viability (CAP-232 + Pictilisib; first compound 1.265 µM)	relative viability (CAP-232 + Pictilisib; first compound 4 µM)	relative viability (CAP-232 + Pictilisib; first compound 12.65 µM)	relative viability (CAP-232 + Crizotinib; first compound 0.4 µM)	relative viability (CAP-232 + Crizotinib; first compound 1.265 µM)	relative viability (CAP-232 + Crizotinib; first compound 4 µM)	relative viability (CAP-232 + Crizotinib; first compound 12.65 µM)	relative viability (CAP-232 + Phenformin; first compound 0.4 µM)	relative viability (CAP-232 + Phenformin; first compound 1.265 µM)	relative viability (CAP-232 + Phenformin; first compound 4 µM)	relative viability (CAP-232 + Phenformin; first compound 12.65 µM)	relative viability (CAP-232 + Linsitinib; first compound 0.4 µM)	relative viability (CAP-232 + Linsitinib; first compound 1.265 µM)	relative viability (CAP-232 + Linsitinib; first compound 4 µM)	relative viability (CAP-232 + Linsitinib; first compound 12.65 µM)
NCI-H1755	0.419	0.612	0.329	0.383	0.379	0.402	0.452	0.415	0.988	0.778	0.976	0.747	0.676	0.626	0.622	0.582	1.07	0.975	1.08	0.941
NCI-H2087	0.187	0.157	0.146	0.143	0.791	0.983	0.929	0.484	0.929	0.809	0.967	0.819	0.435	0.419	0.436	0.321	0.894	0.955	0.924	0.541
NCI-H2023	0.917	0.725	0.69	0.232	0.253	0.231	0.271	0.133	0.837	0.548	0.693	0.292	0.448	0.388	0.417	0.188	0.659	0.615	0.697	0.249
CAL-12T	0.132	0.184	0.242	0.155	0.383	0.381	0.435	0.322	0.531	0.703	0.657	0.739	0.491	0.506	0.593	0.355	0.812	0.784	0.892	0.966
NCI-H2085	0.472	0.459	0.425	0.462	0.475	0.421	0.355	0.538	0.728	0.882	0.821	0.853	0.713	0.703	0.741	0.688	0.816	1.04	0.955	0.843
NCI-H650	0.735	0.824	0.674	0.721	0.84	0.821	1.06	0.564	0.7	0.767	0.795	0.494	0.443	0.416	0.472	0.413	1.12	0.808	0.872	0.846
LCLC-97TM1	0.799	0.819	0.804	0.799	0.217	0.193	0.232	0.193	0.494	0.347	0.28	0.315	0.462	0.387	0.463	0.422	0.148	0.21	0.218	0.18
NCI-H2126	0.909	0.955	0.992	0.659	0.501	0.468	0.482	0.525	1.06	1.03	1.13	1.09	0.525	0.5	0.51	0.56	0.722	0.709	0.736	0.74
201T	1.08	1.04	0.967	1.07	0.765	0.657	0.678	0.713	1.13	1.02	1.04	1.04	0.487	0.419	0.416	0.443	1.05	0.974	0.978	0.948
NCI-H1915	0.946	0.798	0.806	0.736	0.878	0.852	1.01	0.914	1.04	0.915	1.04	0.961	0.419	0.356	0.407	0.397	1.08	1.1	1.08	0.986
BEN	0.501	0.234	0.184	0.371	0.569	0.55	0.601	0.498	0.859	0.98	0.82	0.772	0.246	0.231	0.231	0.221	0.952	0.944	0.818	0.896
NCI-H2347	0.274	0.493	0.443	0.471	0.412	0.764	0.894	0.508	0.794	0.753	0.0086	0.544	0.281	0.305	0.427	0.296	0.989	0.967	1.04	1.01
H3255	0.805	0.825	1.05	1.01	0.443	0.491	0.553	0.366	0.956	1.04	0.854	0.692	0.746	0.309	0.341	0.504	0.922	0.924	1.16	0.916
NCI-H441	0.388	0.329	0.382	0.382	0.411	0.462	0.412	0.385	0.711	0.636	0.639	0.734	0.82	0.897	0.982	0.864	0.439	0.64	0.699	0.5

— the supplement of paper PMC10307832
